Experimental data reported in the supplement of paper PMC10307832.

Experiments:
Test in all cases: relative viability (nuclei count vs DMSO), 5 days (fraction); higher = more cells survive
NCI-H838 = details: first compound 4 µM
Procedure, shortened: (§1)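 Lung cancer cell lines were pin-tool dosed in 1536-well plates on the day after seeding, with either a lone drug or a fixed anchor-drug dose plus five library-drug doses (not always all listed) in √10 steps. Nuclei were counted on 4× images after 5 days. Relative viability is the ratio of treated-well to vehicle-well nuclei counts, with each value a median of duplicate plates.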

H3255 = system: H3255
Procedure, shortened: as §1

NCI-H2342 = system: NCI-H2342
Procedure, shortened: as §1

NCI-H650 = system: NCI-H650
Procedure, shortened: as §1

LK-2 = system: LK-2
Procedure, shortened: as §1

PC-3 [JPC-3] = system: PC-3 [JPC-3]
Procedure, shortened: as §1

HCC-78 = system: HCC-78
Procedure, shortened: as §1

NCI-H1651 = system: NCI-H1651
Procedure, shortened: as §1

NCI-H1666 = system: NCI-H1666
Procedure, shortened: as §1

UMC-11 = system: UMC-11
Procedure, shortened: as §1

LCLC-97TM1 = system: LCLC-97TM1
Procedure, shortened: as §1

LC-2-ad = system: LC-2-ad
Procedure, shortened: as §1

NCI-H596 = system: NCI-H596
Procedure, shortened: as §1

With Clc1ccc(Nc2nnc(Cc3ccncc3)c3ccccc23)cc1 [Vatalanib] + N=C(N)NC(=N)NCCc1ccccc1 [Phenformin] (partner 250 µM) the relative viability (NCI-H838) was 0.548, the relative viability (H3255; first compound 0.04 µM) was 0.397 and the relative viability (H3255; first compound 0.1265 µM) was 0.392. The relative viability (H3255; first compound 0.4 µM) was 0.316, the relative viability (H3255; first compound 1.265 µM) was 0.368 and the relative viability (H3255; first compound 4 µM) was 0.368. The relative viability (NCI-H2342; first compound 0.04 µM) was 0.573, the relative viability (NCI-H2342; first compound 0.1265 µM) was 0.477 and the relative viability (NCI-H2342; first compound 0.4 µM) was 0.461. The relative viability (NCI-H2342; first compound 1.265 µM) was 0.652, the relative viability (NCI-H2342; first compound 4 µM) was 0.53 and the relative viability (NCI-H650; first compound 0.04 µM) was 0.473. The relative viability (NCI-H650; first compound 0.1265 µM) was 0.427, the relative viability (NCI-H650; first compound 1.265 µM) was 0.446 and the relative viability (NCI-H650; first compound 4 µM) was 0.439. The relative viability (LK-2; first compound 0.04 µM) was 0.408, the relative viability (LK-2; first compound 0.1265 µM) was 0.398 and the relative viability (LK-2; first compound 0.4 µM) was 0.381. The relative viability (LK-2; first compound 1.265 µM) was 0.466, the relative viability (LK-2; first compound 4 µM) was 0.393 and the relative viability (PC-3 [JPC-3]; first compound 0.04 µM) was 0.456. It also gave a relative viability (PC-3 [JPC-3]; first compound 0.1265 µM) of 0.465, a relative viability (PC-3 [JPC-3]; first compound 0.4 µM) of 0.456 and a relative viability (PC-3 [JPC-3]; first compound 1.265 µM) of 0.493. For the same compound, the relative viability (PC-3 [JPC-3]; first compound 4 µM) was 0.508, the relative viability (HCC-78; first compound 0.04 µM) was 0.589 and the relative viability (HCC-78; first compound 0.1265 µM) was 0.613. It also gave a relative viability (HCC-78; first compound 0.4 µM) of 0.631, a relative viability (HCC-78; first compound 1.265 µM) of 0.649 and a relative viability (HCC-78; first compound 4 µM) of 0.575. For the same compound, the relative viability (NCI-H1651; first compound 0.04 µM) was 0.342, the relative viability (NCI-H1651; first compound 0.1265 µM) was 0.29 and the relative viability (NCI-H1651; first compound 0.4 µM) was 0.311. It also gave a relative viability (NCI-H1651; first compound 1.265 µM) of 0.312, a relative viability (NCI-H1651; first compound 4 µM) of 0.405 and a relative viability (NCI-H1666; first compound 0.04 µM) of 0.563. The relative viability (NCI-H1666; first compound 0.1265 µM) was 0.566, the relative viability (NCI-H1666; first compound 0.4 µM) was 0.449 and the relative viability (NCI-H1666; first compound 1.265 µM) was 0.519. For the same compound, the relative viability (NCI-H1666; first compound 4 µM) was 0.559, the relative viability (UMC-11; first compound 0.04 µM) was 0.311 and the relative viability (UMC-11; first compound 0.1265 µM) was 0.328. The relative viability (UMC-11; first compound 0.4 µM) was 0.319, the relative viability (UMC-11; first compound 1.265 µM) was 0.298 and the relative viability (UMC-11; first compound 4 µM) was 0.333. It also gave a relative viability (LCLC-97TM1; first compound 0.04 µM) of 0.417, a relative viability (LCLC-97TM1; first compound 0.1265 µM) of 0.388 and a relative viability (LCLC-97TM1; first compound 0.4 µM) of 0.46. The relative viability (LCLC-97TM1; first compound 1.265 µM) was 0.407, the relative viability (LCLC-97TM1; first compound 4 µM) was 0.396 and the relative viability (LC-2-ad; first compound 0.04 µM) was 0.652. It also gave a relative viability (LC-2-ad; first compound 0.1265 µM) of 0.553, a relative viability (LC-2-ad; first compound 1.265 µM) of 0.517 and a relative viability (LC-2-ad; first compound 4 µM) of 0.55. It also gave a relative viability (NCI-H596; first compound 0.04 µM) of 0.715, a relative viability (NCI-H596; first compound 0.1265 µM) of 0.874 and a relative viability (NCI-H596; first compound 0.4 µM) of 0.769. It also gave a relative viability (NCI-H596; first compound 1.265 µM) of 0.767 and a relative viability (NCI-H596; first compound 4 µM) of 0.662.
